Tests used:
Type in all cases: in vivo
[1] = test system: Cassia obtusifolia; test: Pre-emergence test; conditions: 3 weeks after treatment
Experimental: (§1) To evaluate their herbicidal activity, compounds according to the invention are tested using a representative range of plants:
(§2) The pre-emergence tests involve spraying a liquid formulation of the compound onto the soil in which the seeds of the plant species mentioned above has recently been sown.
(§3) The soil used in the tests is a prepared horticultural loam. The formulations used in the tests are prepared from solutions of the test compounds in acetone containing 0.4% by weight of an alkyl-phenol/ethylene oxide condensate available under the trade mark TRITON X-155. These acetone solutions are diluted with water and the resulting formulations applied at dosage levels corresponding to 0.013 kg, 0.025 kg, 0.100 kg or 0.400 kg of active material per hectare in a volume equivalent to 900 litres per hectare. In these tests untreated sown soil are used as controls. From 2 to 4 weeks after treatment, the tests are terminated and each pot is examined and rated according to the rating system set forth below: […]

[2] = test system: Zea mays; test: Pre-emergence test; conditions: 3 weeks after treatment
Experimental: as §1, §2, §3

[3] = test system: Lamium purpureum; test: Pre-emergence test; conditions: 3 weeks after treatment
Experimental: as §1, §2, §3

[4] = test system: Digitaria sanguinalis; test: Pre-emergence test; conditions: 3 weeks after treatment
Experimental: as §1, §2, §3

[5] = test system: Orysa sativa; test: Pre-emergence test; conditions: 3 weeks after treatment
Experimental: as §1, §2, §3

[6] = test system: Abutilon theophrasti; test: Pre-emergence test; conditions: 3 weeks after treatment
Experimental: as §1, §2, §3

[7] = test system: Echinochloa crus-galli; test: Pre-emergence test; conditions: 3 weeks after treatment
Experimental: as §1, §2, §3

[8] = test system: Alopecurus myosuroides; test: Pre-emergence test; conditions: 3 weeks after treatment
Experimental: as §1, §2, §3

[9] = test system: Matricaria inodora; test: Pre-emergence test; conditions: 3 weeks after treatment
Experimental: as §1, §2, §3

[10] = test system: Setaria viridis; test: Pre-emergence test; conditions: 3 weeks after treatment
Experimental: as §1, §2, §3

[11] = test system: Galium aparine; test: Pre-emergence test; conditions: 3 weeks after treatment
Experimental: as §1, §2, §3

[12] = test system: Ipomoea hederacea; test: Pre-emergence test; conditions: 3 weeks after treatment
Experimental: as §1, §2, §3

[13] = test system: Triticum aestivum; test: Pre-emergence test; conditions: 3 weeks after treatment
Experimental: as §1, §2, §3

[14] = test system: Glycine max; test: Pre-emergence test; conditions: 3 weeks after treatment
Experimental: as §1, §2, §3

[15] = test system: Stellaria media; test: Pre-emergence test; conditions: 3 weeks after treatment
Experimental: as §1, §2, §3

[16] = test system: Cassia obtusifolia; test: Post-emergence herbicidal activity test; conditions: 2-4 weeks after treatment
Experimental: as §1
(§4) These acetone solutions are diluted with water and the resulting formulations applied at dosage levels equivalent of about 0.025 to 0. 4 kg per hectare of test compound per pot. After spraying the plants are placed on greenhouse benches and are cared for in the usual manner, commensurate with conventional greenhouse practices. From 2 to 4 weeks after treatment, the seedling plants are examined and rated according to the rating system provided above.

[17] = test system: Zea mays; test: Post-emergence herbicidal activity test; conditions: 2-4 weeks after treatment
Experimental: as §1, §4

[18] = test system: Digitaria sanguinalis; test: Post-emergence herbicidal activity test; conditions: 2-4 weeks after treatment
Experimental: as §1, §4

[19] = test system: Orysa sativa; test: Post-emergence herbicidal activity test; conditions: 2-4 weeks after treatment
Experimental: as §1, §4

[20] = test system: Abutilon theophrasti; test: Post-emergence herbicidal activity test; conditions: 2-4 weeks after treatment
Experimental: as §1, §4

[21] = test system: Echinochloa crus-galli; test: Post-emergence herbicidal activity test; conditions: 2-4 weeks after treatment
Experimental: as §1, §4

[22] = test system: Alopecurus myosuroides; test: Post-emergence herbicidal activity test; conditions: 2-4 weeks after treatment
Experimental: as §1, §4

[23] = test system: Matricaria inodora; test: Post-emergence herbicidal activity test; conditions: 2-4 weeks after treatment
Experimental: as §1, §4

[24] = test system: Setaria viridis; test: Post-emergence herbicidal activity test; conditions: 2-4 weeks after treatment
Experimental: as §1, §4

[25] = test system: Galium aparine; test: Post-emergence herbicidal activity test; conditions: 2-4 weeks after treatment
Experimental: as §1, §4

[26] = test system: Ipomoea hederacea; test: Post-emergence herbicidal activity test; conditions: 2-4 weeks after treatment
Experimental: as §1, §4

[27] = test system: Triticum aestivum; test: Post-emergence herbicidal activity test; conditions: 2-4 weeks after treatment
Experimental: as §1, §4

[28] = test system: Glycine max; test: Post-emergence herbicidal activity test; conditions: 2-4 weeks after treatment
Experimental: as §1, §4

[29] = test system: Stellaria media; test: Post-emergence herbicidal activity test; conditions: 2-4 weeks after treatment
Experimental: as §1, §4

COc1cc(C#Cc2ccccc2)nc(Oc2cc(C(F)(F)F)nn2C)c1 [Example 27]
4 (4-Injury): Assessment (pre-emergence application) ECHCG ([7]; 0.100 kg/ha) | Assessment (pre-emergence application) IPOHE ([12]; 0.100 kg/ha) | Post-emergence application DIGSA ([18]; 0.100 kg/ha) | Post-emergence application GLXMA ([28]; 0.100 kg/ha)
0 (0-No effect): Assessment (pre-emergence application) ORYSA ([5]; 0.025 kg/ha)
6 (6-Herbicidal effect): Assessment (pre-emergence application) DIGSA ([4]; 0.025 kg/ha) | Assessment (pre-emergence application) DIGSA ([4]; 0.100 kg/ha) | Assessment (pre-emergence application) ALOMY ([8]; 0.400 kg/ha) | Assessment (pre-emergence application) GALAP ([11]; 0.400 kg/ha) | Assessment (pre-emergence application) IPOHE ([12]; 0.400 kg/ha) | Post-emergence application DIGSA ([18]; 0.400 kg/ha) | Post-emergence application ABUTH ([20]; 0.400 kg/ha) | Post-emergence application ALOMY ([22]; 0.100 kg/ha) | Post-emergence application GALAP ([25]; 0.100 kg/ha) | Post-emergence application IPOHE ([26]; 0.100 kg/ha) | Post-emergence application IPOHE ([26]; 0.400 kg/ha) | Post-emergence application GLXMA ([28]; 0.400 kg/ha) | Post-emergence application STEME ([29]; 0.100 kg/ha)
8 (8-Approaching complete kill): Assessment (pre-emergence application) CASOB ([1]; 0.400 kg/ha) | Assessment (pre-emergence application) LAMPU ([3]; 0.025 kg/ha) | Assessment (pre-emergence application) LAMPU ([3]; 0.100 kg/ha) | Assessment (pre-emergence application) DIGSA ([4]; 0.400 kg/ha) | Assessment (pre-emergence application) ABUTH ([6]; 0.400 kg/ha) | Assessment (pre-emergence application) MATIN ([9]; 0.025 kg/ha) | Assessment (pre-emergence application) MATIN ([9]; 0.100 kg/ha) | Assessment (pre-emergence application) MATIN ([9]; 0.400 kg/ha) | Assessment (pre-emergence application) SETVI ([10]; 0.100 kg/ha) | Post-emergence application ALOMY ([22]; 0.400 kg/ha) | Post-emergence application SETVI ([24]; 0.400 kg/ha) | Post-emergence application STEME ([29]; 0.400 kg/ha)
2 (2-Slight effect): Assessment (pre-emergence application) ZEAMX ([2]; 0.100 kg/ha) | Assessment (pre-emergence application) ALOMY ([8]; 0.025 kg/ha) | Assessment (pre-emergence application) GALAP ([11]; 0.100 kg/ha) | Assessment (pre-emergence application) TRZWA ([13]; 0.100 kg/ha) | Assessment (pre-emergence application) GLXMA ([14]; 0.025 kg/ha) | Assessment (pre-emergence application) GLXMA ([14]; 0.100 kg/ha) | Post-emergence application TRZWA ([27]; 0.100 kg/ha)
5 (5-Definite injury): Assessment (pre-emergence application) ABUTH ([6]; 0.025 kg/ha) | Assessment (pre-emergence application) ABUTH ([6]; 0.100 kg/ha) | Assessment (pre-emergence application) SETVI ([10]; 0.025 kg/ha) | Post-emergence application ABUTH ([20]; 0.100 kg/ha) | Post-emergence application ECHCG ([21]; 0.100 kg/ha) | Post-emergence application MATIN ([23]; 0.100 kg/ha)
7 (7-Good herbicidal effect): Assessment (pre-emergence application) CASOB ([1]; 0.025 kg/ha) | Assessment (pre-emergence application) ECHCG ([7]; 0.400 kg/ha) | Post-emergence application CASOB ([16]; 0.100 kg/ha) | Post-emergence application CASOB ([16]; 0.400 kg/ha) | Post-emergence application ECHCG ([21]; 0.400 kg/ha) | Post-emergence application MATIN ([23]; 0.400 kg/ha) | Post-emergence application SETVI ([24]; 0.100 kg/ha) | Post-emergence application GALAP ([25]; 0.400 kg/ha)
3 (3-Moderate effect): Assessment (pre-emergence application) ZEAMX ([2]; 0.400 kg/ha) | Assessment (pre-emergence application) ECHCG ([7]; 0.025 kg/ha) | Assessment (pre-emergence application) ALOMY ([8]; 0.100 kg/ha) | Assessment (pre-emergence application) IPOHE ([12]; 0.025 kg/ha) | Assessment (pre-emergence application) TRZWA ([13]; 0.400 kg/ha) | Assessment (pre-emergence application) GLXMA ([14]; 0.400 kg/ha) | Post-emergence application ZEAMX ([17]; 0.100 kg/ha) | Post-emergence application ZEAMX ([17]; 0.400 kg/ha) | Post-emergence application ORYSA ([19]; 0.100 kg/ha) | Post-emergence application ORYSA ([19]; 0.400 kg/ha) | Post-emergence application TRZWA ([27]; 0.400 kg/ha)
9 (9-Complete kill): Assessment (pre-emergence application) LAMPU ([3]; 0.400 kg/ha) | Assessment (pre-emergence application) SETVI ([10]; 0.400 kg/ha) | Assessment (pre-emergence application) STEME ([15]; 0.025 kg/ha) | Assessment (pre-emergence application) STEME ([15]; 0.100 kg/ha) | Assessment (pre-emergence application) STEME ([15]; 0.400 kg/ha)
1 (1-Trace effect): Assessment (pre-emergence application) ZEAMX ([2]; 0.025 kg/ha) | Assessment (pre-emergence application) ORYSA ([5]; 0.100 kg/ha) | Assessment (pre-emergence application) ORYSA ([5]; 0.400 kg/ha) | Assessment (pre-emergence application) GALAP ([11]; 0.025 kg/ha) | Assessment (pre-emergence application) TRZWA ([13]; 0.025 kg/ha)
